From the NIST ThermoML archive (doi:10.1021/je201116t)

Assay: xn = mol fraction of the nth substance listed
Conditions: 101 kPa, Liquid; for viscosity: Capillary tube (Ostwald / Ubbelohde) method

CCC(=O)[O-].CC[NH+]1CCNCC1 [N-ethylpiperazinium propionate] + CCCO
Conditions | mass density, 298.15 K [kg/m3] | mass density, 303.15 K [kg/m3] | mass density, 308.15 K [kg/m3] | mass density, 313.15 K [kg/m3] | viscosity, 298.15 K [mPa·s] | viscosity, 303.15 K [mPa·s] | viscosity, 308.15 K [mPa·s] | viscosity, 313.15 K [mPa·s]
x2 = 0 | 1008.36 | 1004.38 | 1000.33 | 996.237 | 243.49 | 164.81 | 113.44 | 80.93
x2 = 0.1036 | 1000.19 | 996.232 | 992.229 | 988.196 | 160.34 | 113.63 | 81.46 | 59.74
x2 = 0.2026 | 991.259 | 987.3 | 983.298 | 979.269 | 107.67 | 76.59 | 56.22 | 42.19
x2 = 0.3041 | 980.78 | 976.824 | 972.831 | 968.803 | 70.22 | 52.12 | 39.45 | 30.42
x2 = 0.4017 | 968.85 | 964.943 | 960.993 | 956.993 | 47.45 | 36.21 | 28.19 | 22.22
x2 = 0.4993 | 955.014 | 951.074 | 947.084 | 943.06 | 30.81 | 24.26 | 19.38 | 15.67
x2 = 0.5997 | 937.035 | 933.087 | 929.086 | 925.047 | 18.93 | 15.39 | 12.6 | 10.42
x2 = 0.6994 | 915.033 | 911.053 | 907.028 | 902.965 | 11.31 | 9.444 | 7.899 | 6.684
x2 = 0.8009 | 886.568 | 882.553 | 878.491 | 874.385 | 6.389 | 5.454 | 4.689 | 4.059
x2 = 0.8997 | 850.105 | 846.036 | 841.932 | 837.782 | 3.609 | 3.15 | 2.762 | 2.435
